Experimental data taken from patent EP4745117A1, “NOVEL INDENONE DERIVATIVE AND USE THEREOF” (Amyloid Solution Inc., priority 2023, dated 2025).
Where two headings read alike, the source gives them in different places.

Legend:
[1] = target: Tau-RD3 (Tau repeat domain 3) (Homo sapiens, UniProt P10636); assay: Tau disaggregation test by Thioflavin-T analysis; assay type: biochemical
Description: (§1) Each compound was dissolved in DMSO to a concentration of 10 mM. Then, the compounds were diluted with 6 % DMSO (in DW) for use.
(§2) Amyloid-beta and tau solutions were prepared by dissolving Aβ1-42 or Tau-RD3 (Tau repeat domain 3) monomers in DMSO to a concentration of 10 mM. Then, the solutions were diluted to 100 µM with DW and stored on ice.
(§3) Meanwhile, Thioflavin-T was dissolved in 50 mM glycine buffer (pH 8.5) to a concentration of 5 mM. Then, the solution was diluted to 5 µM with 50 mM glycine buffer (pH 8.5) and stored in the dark, protected from light.
(§4) The amyloid-beta and tau solutions prepared in Example 1.1 were each placed in 1.5 mL microcentrifuge tubes to a concentration of 50 µM or 35 µM, respectively, and then reacted at 37 °C for 24 hours.
(§5) To each 1.5 mL microcentrifuge tube in which the amyloid-beta and tau aggregation was complete, the compounds were added at concentrations ranging from 500 µM down to 0 µM by serial dilution, and then further reacted at 37 °C for 48 hours.
(§6) 25 µL of each completed reaction solution was added to each well of a 96-well fluorescence analysis plate, and 75 µL of the Thioflavin-T solution was added to each well. After reacting for 5 minutes at room temperature in the dark, the fluorescence value was measured at 450 nm (excitation) and 485 nm (emission) using a multi-mode microplate reader.
(§7) The fluorescence value of the group (control group) treated with only amyloid-beta or tau and aggregated for 72 hours was designated as 100 %. The fluorescence values measured after treating the amyloid-beta and tau aggregates (formed by reacting for 24 hours) with each compound by concentration and reacting for an additional 48 hours were converted to relative values.

Aβ1-42 = target: T1, Aβ1-42 (Homo sapiens, UniProt P05067); assay: Amyloid-beta disaggregation test by Thioflavin-T analysis; assay type: biochemical
T1 construct: dissolving Aβ1-42 or Tau-RD3 (Tau repeat domain 3) monomers in DMSO
Description: as §1, §2, §3, §4, §5, §6, §7

[2] = Tau-RD3 35 µM aggregated 24 hours, then compound 0 - 500 µM for 48 hours at 37 °C; concentration disaggregating 50 % of aggregates vs control; read-out: EC50 (µM) Tau
[3] = Aβ1-42 50 µM aggregated 24 hours, then compound 0 - 500 µM for 48 hours at 37 °C; concentration disaggregating 50 % of aggregates vs control; read-out: EC50 (µM) Aβ
[4] = statement in words summarising the Thioflavin-T results

Tau-RD3 (Tau repeat domain 3), sequence (P10636 623-653 limits assumed): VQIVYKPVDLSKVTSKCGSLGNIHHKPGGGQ
T1 sequence (P05067 672-713 limits assumed): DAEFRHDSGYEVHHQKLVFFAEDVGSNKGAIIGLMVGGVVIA

## O=C1C(c2ccccc2)=C(c2ccccc2)c2ccccc21 [Compound 1, 2,3-diphenylinden-1-one]
[1]; [2]
  EC50: > 250 µM
Aβ1-42; [3]
  EC50: < 20 µM

## COc1ccc2c(c1)C(=O)C(c1ccccc1)=C2c1ccccc1 [Compound 2, 6-methoxy-2,3-diphenyl-1H-inden-1-one]
[1]; [2]
  EC50: > 250 µM
Aβ1-42; [3]
  EC50: < 20 µM

## CCCOc1ccc2c(c1)C(=O)C(c1ccccc1)=C2c1ccccc1 [Compound 3, 2,3-diphenyl-6-propoxy-1H-inden-1-one]
[1]; [2]
  EC50: > 250 µM
Aβ1-42; [3]
  EC50: < 20 µM

## CC(C)Oc1ccc2c(c1)C(=O)C(c1ccccc1)=C2c1ccccc1 [Compound 4, isopropoxy-2,3-diphenyl-1H-inden-1-one]
[1]; read-out: EC50 (µM) Tau; Tau-RD3 35 µM aggregated 24 hours, then compound 0 - 500 µM for 48 hours at 37 °C; concentration disaggregating 50 % of aggregates vs control
  EC50: > 250 µM
Aβ1-42; read-out: EC50 (µM) Aβ; Aβ1-42 50 µM aggregated 24 hours, then compound 0 - 500 µM for 48 hours at 37 °C; concentration disaggregating 50 % of aggregates vs control
  EC50: 20 to 100 µM

## Cc1ccccc1C1=C(c2ccccc2)C(=O)c2ccccc21 [Compound 5, 2-phenyl-3-(o-tolyl)-1H-inden-1-one]
[1]; [2]
  EC50: > 250 µM
Aβ1-42; [3]
  EC50: 20 to 100 µM

## O=C1C(c2ccccc2)=C(Br)c2ccccc21 [Compound 5-4, 3-bromo-2-phenyl-1H-inden-1-one]
[1]; [2]
  EC50: < 20 µM
[1]; [4]
  disaggregation effect for tau protein aggregates: remarkably excellent disaggregation effect
Aβ1-42; [3]
  EC50: < 20 µM
Aβ1-42; [4]
  disaggregation effect for amyloid-beta protein aggregates: remarkably excellent disaggregation effect

## Cc1ccccc1C1=C(c2ccccc2)c2ccccc2C1=O [Compound 6, 3-phenyl-2-(o-tolyl)-1H-inden-1-one]
[1]; [2]
  EC50: > 250 µM
Aβ1-42; [3]
  EC50: 20 to 100 µM

## O=C1C(Br)=C(c2ccccc2)c2ccccc21 [Compound 6-2, 2-bromo-3-phenyl-1H-inden-1-one]
[1]; [2]
  EC50: < 20 µM
Aβ1-42; [3]
  EC50: 20 to 100 µM

## O=C1C(c2cccnc2)=C(c2ccccc2)c2ccccc21 [Compound 7, 3-phenyl-2-(pyridin-3-yl)-1H-inden-1-one]
[1]; [2]
  EC50: > 250 µM
Aβ1-42; [3]
  EC50: < 20 µM

## O=C1C(N2CCOCC2)=C(c2ccccc2)c2ccccc21 [Compound 8, 2-morpholino-3-phenyl-1H-inden-1-one]
[1]; [2]
  EC50: 20 to 100 µM
Aβ1-42; [3]
  EC50: 100 to 250 µM

## O=C1C(c2ccccc2)=C(c2cccnc2)c2ccccc21 [Compound 9, 2-phenyl-3-(pyridin-3-yl)-1H-inden-1-one]
[1]; [2]
  EC50: 20 to 100 µM
Aβ1-42; [3]
  EC50: 20 to 100 µM

## O=C1C(c2ccccc2)=C(C2CCCCC2)c2ccccc21 [Compound 10, 3-cyclohexyl-2-phenyl-1H-inden-1-one]
[1]; [2]
  EC50: > 250 µM
Aβ1-42; [3]
  EC50: > 250 µM

## O=C1C(C2CCCCC2)=C(c2ccccc2)c2ccccc21 [Compound 11, 2-cyclohexyl-3-phenyl-1H-inden-1-one]
[1]; [2]
  EC50: > 250 µM
Aβ1-42; [3]
  EC50: 100 to 250 µM

## O=C1C(c2ccccc2)=C(c2ccccc2)c2ccc(N3CCOCC3)cc21 [Compound 12, 6-morpholino-2,3-diphenyl-1H-inden-1-one]
[1]; [2]
  EC50: > 250 µM
Aβ1-42; [3]
  EC50: < 20 µM

## O=C1C(c2ccccc2)=C(c2ccccc2)c2ccc(Cl)cc21 [Compound 12-3, 6-chloro-2,3-diphenyl-1H-inden-1-one]
[1]; [2]
  EC50: > 250 µM
Aβ1-42; [3]
  EC50: 100 to 250 µM

## O=C1C(c2ccccc2)=C(c2ccc(N3CCOCC3)cc2)c2ccccc21 [Compound 14, 3-(4-morpholinophenyl)-2-phenyl-1H-inden-1-one]
[1]; [2]
  EC50: > 250 µM
Aβ1-42; [3]
  EC50: < 20 µM

## O=C1C(c2ccccc2)=C(c2cccc(N3CCOCC3)c2)c2ccccc21 [Compound 15, 3-(3-morpholinophenyl)-2-phenyl-1H-inden-1-one]
[1]; [2]
  EC50: > 250 µM
Aβ1-42; [3]
  EC50: 20 to 100 µM

## O=C1C(c2ccccc2)=C(c2ccc(CN3CCOCC3)cc2)c2ccccc21 [Compound 16, 3-(4-(morpholinomethyl)phenyl)-2-phenyl-1H-inden-1-one]
[1]; [2]
  EC50: > 250 µM
Aβ1-42; [3]
  EC50: 20 to 100 µM

## O=C1C(c2ccc(N3CCOCC3)cc2)=C(c2ccccc2)c2ccccc21 [Compound 17, 2-(4-morpholinophenyl)-3-phenyl-1H-inden-1-one]
[1]; [2]
  EC50: > 250 µM
Aβ1-42; [3]
  EC50: < 20 µM

## O=C1C(c2cccc(N3CCOCC3)c2)=C(c2ccccc2)c2ccccc21 [Compound 18, 2-(3-morpholinophenyl)-3-phenyl-1H-inden-1-one]
[1]; [2]
  EC50: > 250 µM
Aβ1-42; [3]
  EC50: < 20 µM
